Reference: patent US6407064B2, “Aminoalcohol derivative and medicament comprising the same” (Seikagaku Corporation, priority 1999, dated 2002)

Key:
[1] = system: enzyme for ganglioside GM3 synthesis, mouse B16 melanoma cell; test: Activity of enzyme for ganglioside GM3 synthesis (14C-Gal incorporated in total lipid fraction); format: cell-based; settings: relative value, control regarded as 100; test compound 24 μM, 24 hours; 14C-Gal incorporation
Protocol: The gangliosides produced by mouse B16 melanoma cell are almost composed of ganglioside GM3. Therefore, the activity of the enzyme for ganglioside GM3 synthesis can be determined conveniently by measuring the amount of ^14C-Gal incorporated in a total lipid-extracted fraction through a liquid layer partition method.
(§1) A liquid where the cells of mouse B16 melanoma were suspended was prepared with Dulbecco modified Eagle's medium containing 10% bovine fetal serum, inoculated into a 12-well plate in an amount of 2.0×10^5 cells/ml/well, and cultured in 5% CO2 incubator at 37° C. The treatment with a test compound (24 μM) and the addition of ^14C-Gal (22.2 kBq/11.7 nmol/6 μl/well) were started through the exchange of total amount of the medium 24 hours after the culture was started. Twenty-four hours after the treatment with the test compound was started, the culture mixture was treated with PBS containing 0.02% EDTA and PBS containing 0.25% trypsin successively to recover the cells.
Then, a mixed solvent of chloroform:methanol=2:1 (3 ml) was added to the cell pellet and, after the subjection to an ultrasonication for 30 minutes, the supernatant was recovered. Furthermore, a mixed solvent of chloroform:methanol=1:1 (3 ml) was added to the residual pellet after the recovery of the supernatant, and a similar operation was carried out. The resulting supernatant was combined with the first supernatant and the whole was evaporated to dryness under a nitrogen stream. A desalinated water (1.0 ml) was added to the total lipid-extracted fraction. After having been subjected to an ultrasonication for 1 minute, the mixture was transferred into a dialysis tube and dialyzed against water for 2 days. The sample after the dialysis was transferred into a vial for liquid scintillation counter and, after the addition of scintillator, the activity of incorporating ^14C-Gal was measured on scintillation counter.
The values of activity of the compounds of the present invention are shown as relative values obtained by calculation on the basis that the value of a control (a group where no test compound was added) is regarded as 100 in Table 3 below.

[2] = system: ganglioside GM3, mouse B16 melanoma cells; test: Synthesized amount of ganglioside GM3 (HPTLC densitometry); format: cell-based; settings: relative value, control regarded as 100, test compound 25 μM, 24 hours
Protocol: as §1, with “culture flask (175 cm^2)” for “12-well plate”, “0.8×10^7 cells/20 ml,” for “2.0×10^5 cells/ml/well,”, “(25” for “(24”, “was” for “and the addition of ^14C-Gal (22.2 kBq/11.7 nmol/6 μl/well) were”, “three fourths” for “total amount”
Then, a mixed solvent of chloroform:methanol=2:1 (4 ml) was added to the cell pellet and, after the subjection to an ultrasonication for 30 minutes, the cell pellet solution was allowed to stand at room temperature for a night and the supernatant was recovered. Furthermore, a mixed solvent of chloroform:methanol=1:1 (4 ml) was added to the residual pellet after the recovery of the supernatant, and a similar operation was carried out. The resulting supernatant was combined with the first supernatant and the whole was evaporated to dryness under a nitrogen stream. To the total lipid fraction was added a 0.1 N methanolic sodium hydroxide solution (2.0 ml) and the mixture was allowed to stand at 40° C. for 2 hours. Thereafter, 1 N hydrochloric acid (0.2 ml) was added thereto and the mixture was allowed to stand for 1.5 hours.
Then, the mixture was washed with n-hexane (2 ml×2) and, after the lower layer thus washed was evaporated to dryness under a nitrogen stream, the residue was desalinated by gel filtration chromatography (Sephadex LH-20 (manufactured by Amersham Pharmacia Biotech), diameter of 10 mm, height of 120 mm) using chloroform:methanol=2:1 as the eluting solvent. […] After orcinol-sulfuric acid reagent had been sprayed on the plate, it was heated at 110° C. for 5 minutes and colored spot of ganglioside GM3 was quantitatively determined by means of densitometer (a measuring wavelength of 505 nm). […]

[3] = Tissue distribution: concentration in plasma and skeletal muscle after oral or intravenous administration; format: in vivo; settings: male, Wistar, plasma, rat
Protocol: Tissue distribution of the compound in Example 19 was compared with that of L-PDMP using 6-8 week old Wistar male rats.
As oral administration, a physiological saline containing 20 mg/ml of a test substance was administered at 100 mg/5 ml/kg, and as intravenous administration, a physiological saline containing 1.25 mg/ml of a test substance was administered to the cervical vein at 5 mg/4 ml/kg.
After the predetermined time had passed since the above administration, blood was collected from the rat cervical vein, a 3.8% sodium citrate solution was added thereto at 1/10 volume, followed by centrifugation at 3,000 rpm for 15 minutes to obtain the supernatant as a plasma sample.
Also, after the predetermined time had passed since the above administration, the skeletal muscle was collected from the femoral region of both hind legs, ice water was added thereto at 4 ml/g tissue, followed by homogenization, and the same volume of acetonitrile was added thereto, followed by vigorously stirring and centrifugation at 4000 rpm for 10 minutes to obtain the supernatant as a skeletal muscle sample.
The plasma and skeletal muscle samples were extracted by OASIS HLB solid phase extraction column (manufactured by Waters), and the concentration of the test compound in the plasma and the muscle was determined by high performance liquid chromatography (HPLC). The conditions of HPLC analysis were as follows:
Detection wavelength: 218 nm
Column: DAISO PACK SP-120-5-ODS-BP
Column temperature: 40° C.
Mobile phase: 0.1% trifluoroacetic acid solution:methanol=36:64 (for L-PDMP); 0.1% trifluoroacetic acid solution:methanol=48:52 (for the compound in Example 19)
The concentrations in the plasma and skeletal muscle of the compound in Example 19 and L-PDMP after the predetermined time has been passed since the administration of the test compounds are shown in Tables 4-6 below. The values are the mean values of at least two test samples. Specifically, Table 4, Table 5, and Table 6 show the concentrations in the plasma after the oral administration of 100 mg/kg, the concentrations in the skeletal muscle after the oral administration of 100 mg/kg, and the concentrations in the plasma after the intravenous administration of 5 mg/kg, respectively.

neurite = settings: literature; cited from earlier work

concentration at 10 min ([3]; intravenous administration of 5 mg/kg, 10 min): 1030 ng/mL
concentration at 25 min ([3]; intravenous administration of 5 mg/kg, 25 min): 620 ng/mL
concentration at 5 min ([3]; oral administration of 100 mg/kg, 5 min): 10 ng/mL
concentration at 15 min ([3]; oral administration of 100 mg/kg, 15 min): 1360 ng/mL
concentration at 30 min ([3]; oral administration of 100 mg/kg, 30 min): 2100 ng/mL
concentration at 60 min ([3]; oral administration of 100 mg/kg, 60 min): 1440 ng/mL
Compound: CCCCCCCCCC(=O)N[C@@H](CN1CCOCC1)[C@@H](O)c1ccccc1 [L-PDMP, (1S,2S)-1-phenyl-2-decanoylamino-3-morpholino-1-propanol, reference compound]
Activity of accelerating glycolipid biosynthesis (Test Example 2) [1]: 95.2
Glycolipid content (Test Example 3) [2]: 100.7
effect on neurite extension (neurite): effect of accelerating neurite extension
